Test results reported in paper PMC9136116, “The activity of the serotonergic 5-HT1A receptor is modulated by voltage and sodium levels” (The Journal of Biological Chemistry, 2022).
Read-outs that look alike come from different tables or passages of the source.

Assays:
5-HT1A receptor [1] = target: T1, 5-HT1A receptor (Homo sapiens, UniProt P08908); details: for voltage dependence of potency: −80 mV versus +40 mV
T1 sequence (P08908 1-422): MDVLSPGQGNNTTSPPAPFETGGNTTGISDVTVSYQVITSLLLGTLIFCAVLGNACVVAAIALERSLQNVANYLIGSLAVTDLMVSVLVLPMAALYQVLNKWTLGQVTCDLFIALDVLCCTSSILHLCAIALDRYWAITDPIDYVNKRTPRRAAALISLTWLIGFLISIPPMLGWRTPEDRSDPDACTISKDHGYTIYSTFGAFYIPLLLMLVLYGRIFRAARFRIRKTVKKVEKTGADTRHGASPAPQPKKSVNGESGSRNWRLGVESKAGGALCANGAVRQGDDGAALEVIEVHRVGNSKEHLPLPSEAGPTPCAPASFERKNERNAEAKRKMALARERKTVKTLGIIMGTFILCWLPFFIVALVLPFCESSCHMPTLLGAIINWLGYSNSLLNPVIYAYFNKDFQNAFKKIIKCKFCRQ

5-HT1A receptor [2] = target: T1, 5-HT1A receptor; assay: cell-based; set-up: Emax: dose or concentration left out as unconfirmed; details: for EC50: EC50 (activation of receptor-mediated GIRK current), wt receptor, 72 mM Na+ solution

For O=C1[C@@H]2[C@H]3CC[C@H](C3)[C@@H]2C(=O)N1CCCCN1CCN(c2ncccn2)CC1 [tandospirone], the “voltage dependence of potency” value (5-HT1A receptor [1]) was “voltage-dependent”, the EC50 (5-HT1A receptor [2]; holding potential +40 mV) was 938 nM and the EC50 (5-HT1A receptor [2]; holding potential −80 mV) was 194 nM. The Emax (5-HT1A receptor [2]; read-out: maximal response relative to the maximal response evoked by 5-HT at the same oocytes) was roughly 55%.
O=C1CC2(CCCC2)CC(=O)N1CCCCN1CCN(c2ncccn2)CC1 [buspirone] was tested, and the “voltage dependence of potency” value (5-HT1A receptor [1]) was “not voltage dependent” and the Emax (5-HT1A receptor [2]; read-out: maximal response relative to the maximal response produced by 5-HT) was roughly 42%.
NCCc1c[nH]c2ccc(O)cc12 [5-HT, 5-hydroxytryptamine] was tested, and the “effect of removal of extracellular Na+ on maximal I5-HT” value (5-HT1A receptor [1]; 5 μM 5-HT, Na+-free versus 72 mM Na+) was “did not affect the maximal current” and the “decrease of potency by depolarization” value (5-HT1A receptor [1]; +40 mV versus −80 mV, 72 mM Na+) was “more than 20 fold”.
